Measured values taken from patent US12662482B2 (The Johns Hopkins University, priority 2020, dated 2026).
Structures can show the parent of a compound that is named as a salt.

What follows are molecules tested on RPA194 (assay: RPA194 destruction / Pol I inhibition, high-content imaging in A375 cells). Conditions: A375 cells treated for 4 hours, anti-RPA194 immunofluorescence; pIC50 >= 5.02 deemed a Pol I inhibitor.
Assay type: cell-based
Description: Cell culture: A375 cells (CRL-1619, ATCC) were grown in DMEM (GJBCO) supplemented with […] (GTBCO) in 5% CO2 at 37° C.
Cell treatment and Imaging: 18 hours post-seeding in cell carrier black 384-well plates (PerkinElmer) at 15 000 cells/well, A375 cells were treated for 4 hours with a positive control or test compounds (9 serial semi-log dilutions, top concentration 10 μM). Upon treatment A375 cells were (i) fixed for 15 min at RT with 4% of paraformaldehyde, (ii) permeabilized for 20 min at RT with 0.1-0.5% of NP-40, (iii) incubated with primary antibodies at 4° C.: anti-RPA194 (1:1000-1:1250 dilution, sc-48385, Santa Cruz Biotechnology) and anti-gH2Ax (1:5000 dilution, 81299, Abcam or 1:4000, JBW302, Millipore) (iv) incubated for 1 h at RT with Hoechst (1:5000 dilution, H3570, ThermoFisher) and secondary antibodies: anti-mouse-AlexaFluor488 (1:2000 dilution, A11001, ThermoFisher) and anti-rabbit-AlexaFluor647 (1:2000 dilution, A21443, ThermoFisher) or goat anti-mouse AlexaFluor-594 (1:1000 dilution). Images were acquired on an Operetta CLS High-Content Analysis System (PerkinElmer) (40× objective; 9 fields/well) and processed using the Columbus Image Analysis System (PerkinElmer) or by using Molecular Devices ImageXpress Micro XLS High Content Imager and MetaXpress high-content acquisition and analysis software.
In the table below, (+) is associated with a pIC50 5.02 to 5.8; (++) with pIC50 5.8 to 6.3; and (+++) with a pIC50 above 6.3.

Activity Range (pIC50)	Compound
+++ ((+++) with a pIC50 above 6.3)	C[C@H](CN1CC[C@H](O)C1)NC(=O)c1cccn2c(=O)c3ccc4ccccc4c3nc12 [Example 30, N-((R)-1-((S)-3-hydroxypyrrolidin-1-yl)propan-2-yl)-7-oxo-7H-benzo[h]pyrido[2,1-b]quinazoline-12-carboxamide hydrochloride]
++ ((++) with pIC50 5.8 to 6.3)	C[C@@H](CNC(=O)c1cccn2c(=O)c3ccc4ccccc4c3nc12)N(C)C [Example 10, (S)-N-(2-(dimethylamino)propyl)-7-oxo-7H-benzo[h]pyrido[2,1-b]quinazoline-12-carboxamide; hydrochloride]
++ ((++) with pIC50 5.8 to 6.3)	O=C1CCN(CCNC(=O)c2cccn3c(=O)c4ccc5ccccc5c4nc23)CC1 [Example 22, 7-oxo-N-(2-(4-oxopiperidin-1-yl)ethyl)-7H-benzo[h]pyrido[2,1-b]quinazoline-12-carboxamide hydrochloride]
++ ((++) with pIC50 5.8 to 6.3)	CN(C)C(C)(C)CNC(=O)c1cccn2c(=O)c3ccc4ccccc4c3nc12 [Example 6, N-(2-(dimethylamino)-2-methylpropyl)-7-oxo-7H-benzo[h]pyrido[2,1-b]quinazoline-12-carboxamide hydrochloride]
++ ((++) with pIC50 5.8 to 6.3)	CNC(C)CNC(=O)c1cccn2c(=O)c3ccc4ccccc4c3nc12 (single isomer, unassigned) [Example 20, (R or S)-N-(2-(methylamino)propyl)-7-oxo-7H-benzo[h]pyrido[2,1-b]quinazoline-12-carboxamide; hydrochloride]
+++ ((+++) with a pIC50 above 6.3)	O=C(NCCN1C[C@@H](O)[C@H](O)C1)c1cccn2c(=O)c3ccc4ccccc4c3nc12 [Example 7, N-(2-((3R,4R)-3,4-dihydroxy-pyrrolidin-1-yl)ethyl)-7-oxo-7H-benzo[h]pyrido[2,1-b]quinazoline-12-carboxamide hydrochloride]
++ ((++) with pIC50 5.8 to 6.3)	CNC(C)CNC(=O)c1cccn2c(=O)c3ccc4ccccc4c3nc12 (single isomer, unassigned) [Example 19, (S or R)-N-(2-(methylamino)propyl)-7-oxo-7H-benzo[h]pyrido[2,1-b]quinazoline-12-carboxamide; hydrochloride]
+++ ((+++) with a pIC50 above 6.3)	CO[C@H]1CCN(CCNC(=O)c2cccn3c(=O)c4ccc5ccccc5c4nc23)C1 [Example 23, (S)-N-(2-(3-methoxypyrrolidin-1-yl)ethyl)-7-oxo-7H-benzo[h]pyrido[2,1-b]quinazoline-12-carboxamide hydrochloride]
++ ((++) with pIC50 5.8 to 6.3)	CO[C@@H]1CCN(CCNC(=O)c2cccn3c(=O)c4ccc5ccccc5c4nc23)C1 [Example 24, (R)-N-(2-(3-methoxypyrrolidin-1-yl)ethyl)-7-oxo-7H-benzo[h]pyrido[2,1-b]quinazoline-12-carboxamide hydrochloride]
+++ ((+++) with a pIC50 above 6.3)	O=C(NCCN1CC[C@@H](O)C1)c1cccn2c(=O)c3ccc4ccccc4c3nc12 [Example 3, (R)-N-(2-(3-hydroxypyrrolidin-1-yl)ethyl)-7-oxo-7H-benzo[h]pyrido[2,1-b]quinazoline-12-carboxamide; hydrochloride]
++ ((++) with pIC50 5.8 to 6.3)	C[C@@H](CN1C[C@H](O)[C@@H](O)C1)NC(=O)c1cccn2c(=O)c3ccc4ccccc4c3nc12 [Example 26, N-((S)-1-((3S,4S)-3,4-dihydroxy-pyrrolidin-1-yl)propan-2-yl)-7-oxo-7H-benzo[h]pyrido[2,1-b]quinazoline-12-carboxamide hydrochloride]
++ ((++) with pIC50 5.8 to 6.3)	CN1CC(NC(=O)c2cccn3c(=O)c4ccc5ccccc5c4nc23)C1 [Example 9, N-(1-methylazetidin-3-yl)-7-oxo-7H-benzo[h]pyrido[2,1-b]quinazoline-12-carboxamide hydrochloride]
+++ ((+++) with a pIC50 above 6.3)	CCN(C)CCNC(=O)c1cccn2c(=O)c3ccc4ccccc4c3nc12 [Example 18, N-(2-(ethyl(methyl)amino)ethyl)-7-oxo-7H-benzo[h]pyrido[2,1-blquinazoline-12-carboxamide hydrochloride]

The remaining lines, values behind:

Compound	Activity Range (pIC50)
C[C@@H]1CCCN1CCNC(=O)c1cccn2c(=O)c3ccc4ccccc4c3nc12 [Example 35, (R)-N-(2-(2-methylpyrrolidin-1-yl)ethyl)-7-oxo-7H-benzo[h]pyrido[2,1-b]quinazoline-12-carboxamide; hydrochloride 1]	+ ((+) is associated with a pIC50 5.02 to 5.8)
CN1CC(CNC(=O)c2cccn3c(=O)c4ccc5ccccc5c4nc23)C1 [Example 37, N-((1-methylazetidin-3-yl)methyl)-7-oxo-7H-benzo[h]pyrido[2,1-b]quinazoline-12-carboxamide; hydrochloride]	+ ((+) is associated with a pIC50 5.02 to 5.8)
O=C(NCCCN1CC[C@H](O)C1)c1cccn2c(=O)c3ccc4ccccc4c3nc12 [Example 39, (S)-N-(3-(3-hydroxypyrrolidin-1-yl)propyl)-7-oxo-7H-benzo[h]pyrido[2,1-b]quinazoline-12-carboxamide hydrochloride]	+ ((+) is associated with a pIC50 5.02 to 5.8)
C[C@H](CN1CC[C@@H](O)C1)NC(=O)c1cccn2c(=O)c3ccc4ccccc4c3nc12 [Example 31, N-((R)-1-((R)-3-hydroxypyrrolidin-1-yl)propan-2-yl)-7-oxo-7H-benzo[h]pyrido[2,1-b]quinazoline-12-carboxamide hydrochloride]	+++ ((+++) with a pIC50 above 6.3)
C[C@@H](CN1CC[C@@H](O)C1)NC(=O)c1cccn2c(=O)c3ccc4ccccc4c3nc12 [Example 29, N-((S)-1-((R)-3-hydroxypyrrolidin-1-yl)propan-2-yl)-7-oxo-7H-benzo[h]pyrido[2,1-b]quinazoline-12-carboxamide hydrochloride]	++ ((++) with pIC50 5.8 to 6.3)
O=C(NCCO)c1cccn2c(=O)c3ccc4ccccc4c3nc12 [Example 32, N-(2-hydroxyethyl)-7-oxo-7H-benzo[h]pyrido[2,1-b]quinazoline-12-carboxamide; hydrochloride]	+ ((+) is associated with a pIC50 5.02 to 5.8)
O=C(NCCN1CC[C@@H](F)C1)c1cccn2c(=O)c3ccc4ccccc4c3nc12 [Example 25, (R)-N-(2-(3-fluoropyrrolidin-1-yl)ethyl)-7-oxo-7H-benzo[h]pyrido[2,1-b]quinazoline-12-carboxamide hydrochloride]	+ ((+) is associated with a pIC50 5.02 to 5.8)
C[C@H](CN(C)C)NC(=O)c1cccn2c(=O)c3ccc4ccccc4c3nc12 [Example 14, (R)-N-(1-(dimethylamino)propan-2-yl)-7-oxo-7H-benzo[h]pyrido[2,1-b]quinazoline-12-carboxamide; hydrochloride]	+++ ((+++) with a pIC50 above 6.3)
O=C(NCCN1CCCC1)c1cccn2c(=O)c3ccc4ccccc4c3nc12 [Example 4, 7-oxo-N-(2-(pyrrolidin-1-yl)ethyl)-7H-benzo[h]pyrido[2,1-b]quinazoline-12-carboxamide hydrochloride]	+++ ((+++) with a pIC50 above 6.3)
